# Patent US8940768B2, “Antifungal triazole derivatives” (Daewoong Pharmaceutical Co., Ltd., priority 2010, dated 2015)
# Like-named read-outs stand apart in the source and are kept apart here.
# Legend:
# Format in all cases: cell-based
# Candida albicans = assay: in vitro antifungal activity (MIC80), Candida albicans; details: 80% growth inhibition vs negative control, RPMI 1640, read 24 hrs after application
# Method: (§1) The compounds of the present invention were evaluated for inhibitory activity against yeast molds including Candida albicans, Candida glabrata, Candida krusei, Candida tropicalis, Candida parapsilosis, and Cryptococcus neoformans, and filamentous fungi including Aspergillus fumigatus, Trichophyton mentagrophytes (obtained from KCTC (Korean Collection for Type Cultures), and Trichophyton rubrum (obtained from KCCM (Korean Culture Center of Microorganisms). All the strains, but Trichophyton mentagrophytes and Trichophyton rubrum, were purchased from the ATCC (American Type Culture Collection).
# (§2) Of the strains used in this test, Candida albicans, Candida glabrata, Candida krusei, Candida tropicalis, Candida parapsilosis, Trichophyton mentagrophytes and Trichophyton rubrum were inoculated into sabouraud dextrose agars (Difco, BD-0109), Cryptococcus neoformans into a yeast mold agar (YM agar, Difco, 271210), and Aspergillus fumigatus into a malt extract agar (Difco, 211220), before incubation at 35° C. for two to ten days.
# (§3) From the agars on which the yeast molds were grown, single colonies were picked up, and each was sufficiently suspended in 5 mL of already prepared, 0.85% sterile saline. After correction of the absorbance to 0.108 at 530 nm, each of the suspensions was diluted to a ratio of 1:50 in an RPMI (Roswell park memorial institute) 1640 medium and then to a ratio of 1:20 to prepare an inoculum having a cell density of from 1.0×10^3 to 5.0×10^3CFU/mL. The cell density was adjusted into […]˜5.0×10^4 CFU/mL for Aspergillus fumigates and 0.4×10^4˜5.0×10^4 CFU/mL for both Trichophyton mentagrophytes and Trichophyton rubrum.
# (§4) The antifungal agent samples were prepared by diluting the active compounds in an RPMI 1640 medium to a serial density of from 0.0156 to 32 μg/mL. In this context, dimethylsulfoxide (DMSO) was used as an excipient at a final concentration of 1% (v/v). The serial dilutions were aliquoted at a volume of 0.1 mL and applied to 0.1 mL of the aliquots of each inoculum, followed by incubation.
# (§5) With the naked eyes, an observation was made of all of the yeast molds, but Cryptococcus neoformans 24 hrs after the application, Cryptococcus neoformans and Aspergillus fumigatus 48 hrs after the application, and Trichophyton mentagrophytes and Trichophyton rubrum five days after the application to examine whether the fungi grew or not. In addition, Alamarblue™ as used to determine the concentrations of the compounds of the present invention at which the growth of the microorganisms was 80% inhibited compared to that of the negative control. All experiments were performed in duplicate for each of the test concentration groups.
# Candida glabrata = assay: in vitro antifungal activity (MIC80), Candida glabrata; details: Nakaseomyces glabratus, 24 h, read-out: Antifungal Activity (MIC80) C. grabrata
# Method: as §1, §2, §3, §4, §5
# Candida krusei = assay: in vitro antifungal activity (MIC80), Candida krusei; details: Pichia kudriavzevii; 80% growth inhibition vs negative control; RPMI 1640; read 24 hrs after application; read-out: Antifungal Activity (MIC80) C. krusei
# Method: as §1, §2, §3, §4, §5
# Candida tropicalis = assay: in vitro antifungal activity (MIC80), Candida tropicalis; details: 80% growth inhibition vs negative control, RPMI 1640, read 24 hrs after application, read-out: Antifungal Activity (MIC80) C. tropicalis
# Method: as §1, §2, §3, §4, §5
# Candida parapsilosis = assay: in vitro antifungal activity (MIC80), Candida parapsilosis; details: Lodderomyces parapsilosis; 80% growth inhibition vs negative control; RPMI 1640; read 24 hrs after application; read-out: Antifungal Activity (MIC80) C. parapsilosis
# Method: as §1, §2, §3, §4, §5
# Cryptococcus neoformans = assay: in vitro antifungal activity (MIC80), Cryptococcus neoformans; details: 80% growth inhibition vs negative control, RPMI 1640, read 48 hrs after application
# Method: as §1, §2, §3, §4, §5
# Aspergillus fumigatus = assay: in vitro antifungal activity (MIC80), Aspergillus fumigatus; details: 80% growth inhibition vs negative control, RPMI 1640, read 48 hrs after application
# Method: as §1, §2, §3, §4, §5
# [1] = test system: Trichophyton mentagrophytes; assay: in vitro antifungal activity (MIC80), Trichophyton mentagrophytes; details: 120 h, 80% growth inhibition vs negative control, RPMI 1640, read five days after application
# Method: as §1, §2, §3, §4, §5
# Trichophyton rubrum = assay: in vitro antifungal activity (MIC80), Trichophyton rubrum; details: 120 h, 80% growth inhibition vs negative control, RPMI 1640, read five days after application
# Method: as §1, §2, §3, §4, §5
# [2] = Table 1, read-out: Antifungal Activity (MIC80) C. albicans
# [3] = Table 2, read-out: Antifungal Activity (MIC80) Candida albicans
SMILES,MIC80 (Candida albicans; [2]),MIC80 (Candida glabrata),MIC80 (Candida krusei),MIC80 (Aspergillus fumigatus),MIC80 (Candida albicans; [3]),also measured
"C[C@@H](N1CCC(Oc2ccc(F)cc2)CC1)[C@](O)(Cn1cncn1)c1ccc(F)cc1F [Example 1, (2R,3R)-2-(2,4-difluorophenyl)-3-(4-(4-fluorophenoxy)piperidin-1-yl)-1-(1H-1,2,4-triazol-1-yl)butan-2-ol]",≤ 0.015 µg/mL,0.25 µg/mL,0.062 µg/mL,≤ 0.125 µg/mL,,MIC80 (Candida tropicalis): 0.062 µg/mL; MIC80 (Candida parapsilosis): ≤ 0.015 µg/mL; MIC80 (Cryptococcus neoformans): ≤ 0.015 µg/mL; MIC80 [1]: ≤ 0.125 µg/mL; MIC80 (Trichophyton rubrum): ≤ 0.125 µg/mL
"C[C@@H](N1CCC(Oc2ccc(Cl)cc2)CC1)[C@](O)(Cn1cncn1)c1ccc(F)cc1F [Example 7, (2R,3R)-3-(4-(4-chlorophenoxy)piperidin-1-yl)-2-(2,4-difluorophenyl)-1-(1H-1,2,4-triazol-1-yl)butan-2-ol]",≤ 0.015 µg/mL,,,≤ 0.125 µg/mL,,
"C[C@@H](N1CCC(Oc2ccc(C(F)(F)F)cc2)CC1)[C@](O)(Cn1cncn1)c1ccc(F)cc1F [Example 13, (2R,3R)-2-(2,4-difluorophenyl)-1-(1H-1,2,4-triazol-1-yl)-3-(4-(4-(trifluoromethyl)phenoxy)piperidin-1-yl)butan-2-ol]",≤ 0.015 µg/mL,,,1 µg/mL,,
"C[C@@H](N1CCC(Oc2ncccn2)CC1)[C@](O)(Cn1cncn1)c1ccc(F)cc1F [Example 29, (2R,3R)-2-(2,4-difluorophenyl)-3-(4-(pyrimidin-2-yloxy)piperidin-1-yl)-1-(1H-1,2,4-triazol-1-yl)butan-2-ol]",≤ 0.015 µg/mL,1 µg/mL,0.5 µg/mL,1 µg/mL,,MIC80 (Candida tropicalis): 0.25 µg/mL; MIC80 (Candida parapsilosis): 0.062 µg/mL; MIC80 (Cryptococcus neoformans): ≤ 0.015 µg/mL; MIC80 [1]: 0.062 µg/mL; MIC80 (Trichophyton rubrum): ≤ 0.125 µg/mL
"C[C@@H](N1CCC(Nc2ccc(F)cn2)CC1)[C@](O)(Cn1cncn1)c1ccc(F)cc1F [Example 58, (2R,3R)-2-(2,4-difluorophenyl)-3-(4-((5-fluoropyridin-2-yl)amino)piperidin-1-yl)-1-(1H-1,2,4-triazol-1-yl)butan-2-ol]",≤ 0.015 µg/mL,1 µg/mL,0.062 µg/mL,0.125 µg/mL,,MIC80 (Candida tropicalis): 0.125 µg/mL; MIC80 (Candida parapsilosis): 0.062 µg/mL; MIC80 [1]: ≤ 0.125 µg/mL; MIC80 (Trichophyton rubrum): ≤ 0.125 µg/mL
"C[C@@H](N1CCC(Nc2ncc(F)cn2)CC1)[C@](O)(Cn1cncn1)c1ccc(F)cc1F [Example 63, (2R,3R)-2-(2,4-difluorophenyl)-3-(4-((5-fluoropyrimidin-2-yl)amino)piperidin-1-yl)-1-(1H-1,2,4-triazol-1-yl)butan-2-ol]",≤ 0.015 µg/mL,1 µg/mL,≤ 0.062 µg/mL,0.25 µg/mL,,MIC80 [1]: ≤ 0.004 µg/mL; MIC80 (Trichophyton rubrum): 0.015 µg/mL
"C[C@@H](OC1CCN(c2ncc(Br)cn2)CC1)[C@](O)(Cn1cncn1)c1ccc(F)cc1F [Example 120, (2R,3R)-3-((1-(5-bromopyrimidin-2-yl)piperidin-4-yl)oxy)-2-(2,4-difluorophenyl)-1-(1H-1,2,4-triazol-1-yl)butan-2-ol]",,,,,≤ 0.015 µg/mL,
"C[C@@H](NC1CCN(c2ccccc2)CC1)[C@](O)(Cn1cncn1)c1ccc(F)cc1F [Example 123, (2R,3R)-2-(2,4-difluorophenyl)-3-((1-phenylpiperidin-4-yl)amino)-1-(1H-1,2,4-triazol-1-yl)butan-2-ol]",,,,,≤ 0.015 µg/mL,
"C[C@@H](NC1CCN(c2ccc(C(F)(F)F)cc2)CC1)[C@](O)(Cn1cncn1)c1ccc(F)cc1F [Example 134, (2R,3R)-2-(2,4-difluorophenyl)-1-(1H-1,2,4-triazol-1-yl)-3-((1-(4-(trifluoromethyl)phenyl)piperidin-4-yl)amino)butan-2-ol]",,,,,≤ 0.015 µg/mL,
"C[C@@H](NC1CCN(c2ccc(C#N)cc2)CC1)[C@](O)(Cn1cncn1)c1ccc(F)cc1F [Example 137, 4-(4-(((2R,3R)-3-(2,4-difluorophenyl)-3-hydroxy-4-(1H-1,2,4-triazol-1-yl)butan-2-yl)amino)piperidin-1-yl)benzonitrile]",,,,,≤ 0.015 µg/mL,
"C[C@@H](NC1CCN(c2ccc(F)cn2)CC1)[C@](O)(Cn1cncn1)c1ccc(F)cc1F [Example 146, (2R,3R)-2-(2,4-difluorophenyl)-3-((1-(5-fluoropyridin-2-yl)piperidin-4-yl)amino)-1-(1H-1,2,4-triazol-1-yl)butan-2-ol]",,,,,≤ 0.015 µg/mL,
"C[C@@H](NC1CCN(c2ccc(Cl)cn2)CC1)[C@](O)(Cn1cncn1)c1ccc(F)cc1F [Example 147, (2R,3R)-3-((1-(5-chloropyridin-2-yl)piperidin-4-yl)amino)-2-(2,4-difluorophenyl)-1-(1H-1,2,4-triazol-1-yl)butan-2-ol]",,,,,≤ 0.015 µg/mL,
"Cc1cc(C(F)(F)F)cnc1N1CCC(N[C@H](C)[C@](O)(Cn2cncn2)c2ccc(F)cc2F)CC1 [Example 148, (2R,3R)-2-(2,4-difluorophenyl)-3-((1-(3-methyl-5-(trifluoromethyl)pyridin-2-yl)piperidin-4-yl)amino)-1-(1H-1,2,4-triazol-1-yl)butan-2-ol]",≤ 0.015 µg/mL,0.25 µg/mL,≤ 0.062 µg/mL,1 µg/mL,,
"C[C@@H](NC1CCN(c2ncccn2)CC1)[C@](O)(Cn1cncn1)c1ccc(F)cc1F [Example 149, (2R,3R)-2-(2,4-difluorophenyl)-3-((1-(pyrimidin-2-yl)piperidin-4-yl)amino)-1-(1H-1,2,4-triazol-1-yl)butan-2-ol]",,,,,≤ 0.015 µg/mL,
"C[C@@H](NC1CCN(c2ncc(F)cn2)CC1)[C@](O)(Cn1cncn1)c1ccc(F)cc1F [Example 151, (2R,3R)-2-(2,4-difluorophenyl)-3-((1-(5-fluoropyrimidin-2-yl)piperidin-4-yl)-amino)-1-(1H-1,2,4-triazol-1-yl)butan-2-ol]",≤ 0.015 µg/mL,1 µg/mL,0.25 µg/mL,1 µg/mL,,MIC80 (Candida tropicalis): 0.25 µg/mL; MIC80 (Candida parapsilosis): 0.125 µg/mL; MIC80 [1]: ≤ 0.004 µg/mL; MIC80 (Trichophyton rubrum): 0.015 µg/mL
"C[C@@H](N(C)C1CCN(c2ccccc2)CC1)[C@](O)(Cn1cncn1)c1ccc(F)cc1F [Example 155, (2R,3R)-2-(2,4-difluorophenyl)-3-(methyl(1-phenylpiperidin-4-yl)amino)-1-(1H-1,2,4-triazol-1-yl)butan-2-ol]",,,,,≤ 0.015 µg/mL,
"C[C@@H](N(C)C1CCN(c2ccc(F)cc2)CC1)[C@](O)(Cn1cncn1)c1ccc(F)cc1F [Example 158, (2R,3R)-2-(2,4-difluorophenyl)-3-((1-(4-fluorophenyl)piperidin-4-yl)(methyl)amino)-1-(1H-1,2,4-triazol-1-yl)butan-2-ol]",,,,,≤ 0.015 µg/mL,
"C[C@@H](N(C)C1CCN(c2ccc(Cl)cc2)CC1)[C@](O)(Cn1cncn1)c1ccc(F)cc1F [Example 161, (2R,3R)-3-((1-(4-chlorophenyl)piperidin-4-yl)(methyl)amino)-2-(2,4-difluorophenyl)-1-(1H-1,2,4-triazol-1-yl)butan-2-ol]",,,,,≤ 0.015 µg/mL,
"C[C@@H](N(C)C1CCN(c2ccc(C(F)(F)F)cc2)CC1)[C@](O)(Cn1cncn1)c1ccc(F)cc1F [Example 167, (2R,3R)-2-(2,4-difluorophenyl)-3-(methyl(1-(4-(trifluoromethyl)phenyl)piperidin-4-yl)amino)-1-(1H-1,2,4-triazol-1-yl)butan-2-ol]",,,,,≤ 0.015 µg/mL,
"C[C@@H](N(C)C1CCN(c2ccc(C#N)cc2)CC1)[C@](O)(Cn1cncn1)c1ccc(F)cc1F [Example 170, 4-(4-(((2R,3R)-3-(2,4-difluorophenyl)-3-hydroxy-4-(1H-1,2,4-triazol-1-yl)butan-2-yl)(methyl)amino)piperidin-1-yl)benzonitrile]",,,,,≤ 0.015 µg/mL,
